Reference: US12060349B2, “Glucosylceramide synthase inhibitors” (Genzyme Corporation, priority 2012, dated 2024)
Like-named read-outs stand apart in the source and are kept apart here.

Tests used:
B16 mouse melanoma cells = test: cell viability in the B16 cell-based assay (Viability, B16 IC50)
In short: (§1)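 Both lines undergo the phenotypic GM3 assay, and viability is recorded from that same cell-based run.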

C32 human melanoma cells = test: cell viability in the C32 cell-based assay (Viability, C32 IC50); conditions: concentration causing 50% cell death, values greater than 10 represent a lack of cell death
In short: as §1

[1] = tested on: GM3 expression on the cell surface, B16 mouse melanoma cells; test: cell based phenotypic assay, cell surface GM3 by antibody mediated immunofluorescence, B16 (GM3 B16 IC50); conditions: Mus musculus, 50% inhibition of GM3 expression on the cell surface
In short: as §1

[2] = tested on: GM3 expression on the cell surface, C32 human melanoma cells; test: cell based phenotypic assay, cell surface GM3 by antibody mediated immunofluorescence, C32 (GM3 C32 IC50); conditions: Homo sapiens, 50% inhibition of GM3 expression on the cell surface
In short: as §1

[3] = target: T1, glucosylceramide synthase (Homo sapiens, UniProt Q16739); test: microsomal assay measuring conversion of ceramide to glucosylceramide by HPLC (GCS IC50); format: biochemical; conditions: concentration causing 50% inhibition of glucosylceramide synthase activity
T1 construct: Microsomes were isolated from A375 human melanoma cells; endogenous in cells; host or cells: A375 human melanoma cells (microsomal fraction, 100,000 g pellet)
T1 sequence (Q16739 1-394): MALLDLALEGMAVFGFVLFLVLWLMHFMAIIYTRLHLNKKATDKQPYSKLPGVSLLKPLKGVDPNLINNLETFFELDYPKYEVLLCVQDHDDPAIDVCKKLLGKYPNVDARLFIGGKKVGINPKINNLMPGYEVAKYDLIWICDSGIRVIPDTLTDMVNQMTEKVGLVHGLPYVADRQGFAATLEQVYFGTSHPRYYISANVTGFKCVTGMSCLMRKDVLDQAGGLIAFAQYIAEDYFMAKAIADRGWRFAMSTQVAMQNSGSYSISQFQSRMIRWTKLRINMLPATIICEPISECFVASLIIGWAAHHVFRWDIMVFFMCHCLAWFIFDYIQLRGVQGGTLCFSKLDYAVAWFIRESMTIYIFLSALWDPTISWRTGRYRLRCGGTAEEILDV
In short: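 Microsomal preparation assayed for glucosylceramide synthase by direct HPLC measurement of ceramide conversion to glucosylceramide. GCS IC50 is the compound concentration giving 50% inhibition of enzyme activity.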

[4] = Mus musculus, B16, B16 cells, concentration causing 50% cell death, values greater than 10 represent a lack of cell death, read-out: Viability, B16 IC50
[5] = Homo sapiens, C32, C32 cells, read-out: Viability, C32 IC50
[6] = B16 mouse melanoma cells, read-out: GM3 B16 IC50
[7] = C32 human melanoma cells, read-out: GM3 C32 IC50
[8] = Mus musculus, B16, read-out: Viability, B16 IC50
[9] = Homo sapiens, C32, read-out: Viability, C32 IC50, C32 cells
[10] = read-out: GM3 B16 IC50, B16 mouse melanoma cells
[11] = read-out: GM3 C32 IC50, C32 human melanoma cells
[12] = read-out: Viability, B16 IC50, B16 cells, concentration causing 50% cell death, values greater than 10 represent a lack of cell death
[13] = read-out: Viability, C32 IC50, C32 cells

Compound	IC50 (B16 mouse melanoma cells; [4]) [nM]	IC50 (C32 human melanoma cells; [5]) [nM]	IC50 [1, 6] [nM]	IC50 [2, 7] [nM]	IC50 [3] [nM]	IC50 (B16 mouse melanoma cells; [8]) [nM]	IC50 (C32 human melanoma cells; [9]) [nM]	IC50 [1, 10] [nM]	IC50 [2, 11] [nM]	IC50 (B16 mouse melanoma cells; [12]) [nM]	IC50 (C32 human melanoma cells; [13]) [nM]
COCCCc1ccc(-c2ccc(C3(NC(=O)NC4(C)CN5CCC4CC5)CC3)cc2)cc1 (centres unmarked) [Example 214, 1-(1-(4′-(3-Methoxypropyl)-[1,1′-biphenyl]-4-yl)cyclopropyl)-3-(3-methylquinuclidin-3-yl)urea]	≥ 10000	≥ 10000	32.9	1.26	3.29						
CCC1(NC(=O)NC2(c3ccc(-c4ccc(CCCOC)cc4)cc3)CC2)CN2CCC1CC2 (centres unmarked) [Example 215, 1-(3-Ethylquinuclidin-3-yl)-3-(1-(4′-(3-methoxypropyl)-[1,1′-biphenyl]-4-yl)cyclopropyl)urea]	7550	≥ 10000	16.2	0.542	2.48						
O=C(NC1(c2ccc(-c3ccc(COCc4cccnc4)cc3)cc2)CC1)OC1CN2CCC1CC2 (centres unmarked) [Example 216, Quinuclidin-3-yl (1-(4′-((pyridin-3-ylmethoxy)methyl)-[1,1′-biphenyl]-4-yl)cyclopropyl)carbamate]					9.33	7940	≥ 10000	201	11.1		
CCC1(NC(=O)NC2(c3ccc(-c4ccc(COCc5cccnc5)cc4)cc3)CC2)CN2CCC1CC2 (centres unmarked) [Example 217, 1-(3-Ethylquinuclidin-3-yl)-3-(1-(4′-((pyridin-3-ylmethoxy)methyl)-[1,1′-biphenyl]-4-yl)cyclopropyl)urea]	≥ 10000	≥ 10000	168	4.02	13.3						
CCCC1(NC(=O)NC2(c3ccc(-c4ccc(COCc5cccnc5)cc4)cc3)CC2)CN2CCC1CC2 (centres unmarked) [Example 218, 1-(3-Propylquinuclidin-3-yl)-3-(1-(4′-((pyridin-3-ylmethoxy)methyl)-[1,1′-biphenyl]-4-yl)cyclopropyl)urea]	7950	≥ 10000	80.9	2.97	11						
O=C(NC1(c2ccc(-c3ccc(COCc4cncnc4)cc3)cc2)CC1)OC1CN2CCC1CC2 (centres unmarked) [Example 219, Quinuclidin-3-yl (1-(4′-((pyrimidin-5-ylmethoxy)methyl)-[1,1′-biphenyl]-4-yl)cyclopropyl)carbamate]					46.6	≥ 10000	≥ 10000	118	20.9		
CCC1(NC(=O)NC2(c3ccc(-c4ccc(COCc5cncnc5)cc4)cc3)CC2)CN2CCC1CC2 (centres unmarked) [Example 220, 1-(3-Ethylquinuclidin-3-yl)-3-(1-(4′-((pyrimidin-5-ylmethoxy)methyl)-[1,1′-biphenyl]-4-yl)cyclopropyl)urea]	≥ 10000	3160	114	6.06	51.6						
O=C(NC1(c2ccc(-c3ccc(COCc4cncnc4)cc3)cc2)CC1)OC1CCN2CCC1CC2 (centres unmarked) [Example 221, 1-Azabicyclo[3.2.2]nonan-4-yl (1-(4′-((pyrimidin-5-ylmethoxy)methyl)-[1,1′-biphenyl]-4-yl)cyclopropyl)carbamate]	≥ 10000	≥ 10000	99.2	21.1	52.1						
COCCCc1ccc(-c2ccc(C(C)(C)NC(=O)NC3(C)CN4CCC3CC4)cc2)cc1 (centres unmarked) [Example 222, 1-(2-(4′-(3-Methoxypropyl)-[1,1′-biphenyl]-4-yl)propan-2-yl)-3-(3-methylquinuclidin-3-yl)urea]	≥ 10000	≥ 10000	30.7	0.758	1.7						
CC(C)(NC(=O)OC1CN2CCC1CC2)c1ccc(-c2ccc(CO)cc2)cc1 (centres unmarked) [Example 223, Quinuclidin-3-yl (2-(4′-(hydroxymethyl)-[1,1′-biphenyl]-4-yl)propan-2-yl)carbamate]					454			881	21.6	≥ 10000	≥ 10000
CCCC1(NC(=O)NC(C)(C)c2ccc(-c3ccc(CCO)cc3)cc2)CN2CCC1CC2 (centres unmarked) [Example 224, 1-(2-(4′-(2-Hydroxyethyl)-[1,1′-biphenyl]-4-yl)propan-2-yl)-3-(3-propylquinuclidin-3-yl)urea]	≥ 10000	≥ 10000	64.3	1.6	20.2						
CCC1(NC(=O)NC(C)(C)c2ccc(-c3ccc(CCO)cc3)cc2)CN2CCC1CC2 (centres unmarked) [Example 225, 1-(3-Ethylquinuclidin-3-yl)-3-(2-(4′-(2-hydroxyethyl)-[1,1′-biphenyl]-4-yl)propan-2-yl)urea]	≥ 10000	≥ 10000	229	1.92	29.4						
CC(C)(NC(=O)OC1CN2CCC1CC2)c1ccc(-c2ccc(CCO)cc2)cc1 (centres unmarked) [Example 226, Quinuclidin-3-yl (2-(4′-(2-hydroxyethyl)-[1,1′-biphenyl]-4-yl)propan-2-yl)carbamate]					148			656	22.3	≥ 10000	≥ 10000
CC(C)(NC(=O)OC1CN2CCC1CC2)c1ccc(-c2ccc(CCc3c[nH]nn3)cc2)cc1 (centres unmarked) [Example 227, Quinuclidin-3-yl (2-(4′-(2-(1H-1,2,3-triazol-4-yl)ethyl)-[1,1′-biphenyl]-4-yl)propan-2-yl)carbamate]					27	≥ 10000	1000	122	10.4		
CC(C)(NC(=O)OC1CCN2CCC1CC2)c1ccc(-c2ccc(CCc3c[nH]nn3)cc2)cc1 (centres unmarked) [Example 228, 1-Azabicyclo[3.2.2]nonan-4-yl (2-(4′-(2-(1H-1,2,3-triazol-4-yl)ethyl)-[1,1′-biphenyl]-4-yl)propan-2-yl)carbamate]	7650	3160	80.8	6.08	18.2						
CC(C)(NC(=O)OC1CN2CCC1CC2)c1ccc(-c2ccc(CN3CCOCC3)cc2)cc1 (centres unmarked) [Example 229, Quinuclidin-3-yl (2-(4′-(morpholinomethyl)-[1,1′-biphenyl]-4-yl)propan-2-yl)carbamate]					158	≥ 10000	≥ 10000	524	53.2		
CC(C)(NC(=O)N1CCN2CCC1CC2)c1ccc(-c2ccc(CN3CCOCC3)cc2)cc1 [Example 230, N-(2-(4′-(Morpholinomethyl)-[1,1′-biphenyl]-4-yl)propan-2-yl)-1,4-diazabicyclo[3.2.2]nonane-4-carboxamide]	≥ 10000	≥ 10000	1790	417	2280						
CC(C)(NC(=O)OC1CN2CCC1CC2)c1ccc(-c2ccc(N3CCOCC3)cc2)cc1 (centres unmarked) [Example 231, Quinuclidin-3-yl (2-(4′-morpholino-[1,1′-biphenyl]-4-yl)propan-2-yl)carbamate]					71	2000	2000	230	15		
CC(C)(NC(=O)NC1(C)CN2CCC1CC2)c1ccc(-c2ccc(N3CCOCC3)cc2)cc1 (centres unmarked) [Example 232, 1-(3-Methylquinuclidin-3-yl)-3-(2-(4′-morpholino-[1,1′-biphenyl]-4-yl)propan-2-yl)urea]	1000	1000	64.2	7.17	30.9						
